Measurements as given in ChEMBL document CHEMBL1144455, “A small molecule-kinase interaction map for clinical kinase inhibitors” (Nat Biotechnol, 2005).

What was measured:
[1] = target: Tyrosine-protein kinase JAK2 (Homo sapiens, UniProt O60674)
[2] = target: Tyrosine-protein kinase SYK (Homo sapiens, UniProt P43405)
[3] = target: Casein kinase I isoform gamma-1 (Homo sapiens, UniProt Q9HCP0)
[4] = target: Phosphorylase b kinase gamma catalytic chain, skeletal muscle/heart isoform (Homo sapiens, UniProt Q16816)
[5] = target: Mitogen-activated protein kinase 14 (Homo sapiens, UniProt Q16539)
[6] = target: Dual specificity protein kinase CLK4 (Homo sapiens, UniProt Q9HAZ1)
[7] = target: Myosin light chain kinase 2, skeletal/cardiac muscle (Homo sapiens, UniProt Q9H1R3)
Sequence of Myosin light chain kinase 2, skeletal/cardiac muscle (Q9H1R3 whole entry): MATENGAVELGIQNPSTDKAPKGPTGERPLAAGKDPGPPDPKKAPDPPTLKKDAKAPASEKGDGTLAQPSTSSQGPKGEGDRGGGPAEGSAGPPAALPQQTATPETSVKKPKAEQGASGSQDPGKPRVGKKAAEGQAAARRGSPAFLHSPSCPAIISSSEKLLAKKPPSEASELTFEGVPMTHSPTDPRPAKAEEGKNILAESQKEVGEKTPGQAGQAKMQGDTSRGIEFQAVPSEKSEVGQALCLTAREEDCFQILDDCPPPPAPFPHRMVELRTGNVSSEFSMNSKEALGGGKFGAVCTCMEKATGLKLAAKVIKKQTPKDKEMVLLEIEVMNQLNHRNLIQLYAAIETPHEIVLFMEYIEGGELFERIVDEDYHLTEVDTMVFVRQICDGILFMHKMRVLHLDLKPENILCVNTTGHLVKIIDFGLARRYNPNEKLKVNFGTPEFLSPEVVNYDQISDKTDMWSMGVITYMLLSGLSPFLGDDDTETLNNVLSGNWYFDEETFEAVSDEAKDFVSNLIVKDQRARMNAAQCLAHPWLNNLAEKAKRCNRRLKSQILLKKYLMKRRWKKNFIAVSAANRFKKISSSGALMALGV

[8] = target: Mitogen-activated protein kinase kinase kinase 4 (Homo sapiens, UniProt Q9Y6R4)
[9] = target: Casein kinase I isoform epsilon (Homo sapiens, UniProt P49674)
Sequence of Casein kinase I isoform epsilon (P49674 whole entry, canonical isoform): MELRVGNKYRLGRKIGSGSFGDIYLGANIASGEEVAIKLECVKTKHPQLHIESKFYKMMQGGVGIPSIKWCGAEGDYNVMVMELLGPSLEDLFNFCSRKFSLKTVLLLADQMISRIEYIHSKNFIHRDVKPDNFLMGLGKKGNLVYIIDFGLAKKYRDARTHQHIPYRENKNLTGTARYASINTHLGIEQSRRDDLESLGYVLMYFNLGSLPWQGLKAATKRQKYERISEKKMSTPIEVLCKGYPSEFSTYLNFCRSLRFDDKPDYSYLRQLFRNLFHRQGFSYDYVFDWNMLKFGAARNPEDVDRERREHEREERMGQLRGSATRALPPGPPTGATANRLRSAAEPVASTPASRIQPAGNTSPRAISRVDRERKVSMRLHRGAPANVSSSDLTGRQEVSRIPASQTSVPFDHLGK

[10] = target: Dual specificity protein kinase CLK2 (Homo sapiens, UniProt P49760)
Sequence of Dual specificity protein kinase CLK2 (P49760 whole entry): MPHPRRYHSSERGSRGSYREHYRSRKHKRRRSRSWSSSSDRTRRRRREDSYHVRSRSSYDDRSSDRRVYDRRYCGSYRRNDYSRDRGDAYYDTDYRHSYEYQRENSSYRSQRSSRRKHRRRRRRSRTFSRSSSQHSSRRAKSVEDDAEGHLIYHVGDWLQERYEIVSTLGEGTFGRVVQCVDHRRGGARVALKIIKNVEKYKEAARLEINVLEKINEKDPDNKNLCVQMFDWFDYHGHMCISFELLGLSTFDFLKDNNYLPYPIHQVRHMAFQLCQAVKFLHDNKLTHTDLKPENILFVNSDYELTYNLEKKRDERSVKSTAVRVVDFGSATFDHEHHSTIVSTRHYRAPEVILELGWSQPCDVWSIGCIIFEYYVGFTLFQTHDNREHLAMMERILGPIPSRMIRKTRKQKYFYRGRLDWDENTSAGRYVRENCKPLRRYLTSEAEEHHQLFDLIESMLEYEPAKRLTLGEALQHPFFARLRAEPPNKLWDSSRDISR

[11] = target: Mitogen-activated protein kinase kinase kinase kinase 5 (Homo sapiens, UniProt Q9Y4K4)
Sequence of Mitogen-activated protein kinase kinase kinase kinase 5 (Q9Y4K4 whole entry): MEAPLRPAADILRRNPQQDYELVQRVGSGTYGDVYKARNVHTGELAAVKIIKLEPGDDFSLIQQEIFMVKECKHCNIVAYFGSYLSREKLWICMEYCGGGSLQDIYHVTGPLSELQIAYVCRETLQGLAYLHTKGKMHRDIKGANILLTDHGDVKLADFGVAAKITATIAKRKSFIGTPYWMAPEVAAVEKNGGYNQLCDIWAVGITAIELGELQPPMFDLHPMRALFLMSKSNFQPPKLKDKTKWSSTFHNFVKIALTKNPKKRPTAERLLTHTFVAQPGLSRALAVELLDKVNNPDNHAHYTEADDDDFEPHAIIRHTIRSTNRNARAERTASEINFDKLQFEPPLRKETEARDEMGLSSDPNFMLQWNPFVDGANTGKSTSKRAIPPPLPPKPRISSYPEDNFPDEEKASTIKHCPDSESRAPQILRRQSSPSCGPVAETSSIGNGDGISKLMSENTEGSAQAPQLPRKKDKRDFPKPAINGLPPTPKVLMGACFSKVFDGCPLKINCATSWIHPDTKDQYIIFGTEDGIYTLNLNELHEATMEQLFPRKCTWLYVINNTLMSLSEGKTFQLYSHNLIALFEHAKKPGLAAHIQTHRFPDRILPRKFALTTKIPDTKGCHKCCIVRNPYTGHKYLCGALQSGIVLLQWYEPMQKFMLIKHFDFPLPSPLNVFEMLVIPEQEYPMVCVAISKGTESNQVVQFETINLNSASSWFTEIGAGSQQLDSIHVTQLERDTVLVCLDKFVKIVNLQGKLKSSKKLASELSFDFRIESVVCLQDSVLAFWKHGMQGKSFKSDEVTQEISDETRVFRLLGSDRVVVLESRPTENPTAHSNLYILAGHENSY

[12] = target: Dual specificity protein kinase CLK1 (Homo sapiens, UniProt P49759)
Sequence of Dual specificity protein kinase CLK1 (P49759 whole entry): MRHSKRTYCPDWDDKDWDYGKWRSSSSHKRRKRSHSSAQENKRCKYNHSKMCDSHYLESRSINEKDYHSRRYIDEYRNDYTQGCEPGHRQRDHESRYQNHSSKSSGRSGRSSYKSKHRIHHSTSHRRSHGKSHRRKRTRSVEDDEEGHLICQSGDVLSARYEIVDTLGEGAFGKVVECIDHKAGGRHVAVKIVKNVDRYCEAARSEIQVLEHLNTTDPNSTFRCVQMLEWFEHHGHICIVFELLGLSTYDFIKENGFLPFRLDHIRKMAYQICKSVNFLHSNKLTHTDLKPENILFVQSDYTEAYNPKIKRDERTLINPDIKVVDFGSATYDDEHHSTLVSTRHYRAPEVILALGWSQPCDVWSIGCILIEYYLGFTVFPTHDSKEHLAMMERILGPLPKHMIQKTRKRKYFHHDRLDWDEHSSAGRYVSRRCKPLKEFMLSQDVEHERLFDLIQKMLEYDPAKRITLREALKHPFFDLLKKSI

[13] = target: Calcium/calmodulin-dependent protein kinase type II subunit alpha (Homo sapiens, UniProt Q9UQM7)
[14] = target: Serine/threonine-protein kinase PAK 5 (Homo sapiens, UniProt Q9P286)
Sequence of Serine/threonine-protein kinase PAK 5 (Q9P286 whole entry): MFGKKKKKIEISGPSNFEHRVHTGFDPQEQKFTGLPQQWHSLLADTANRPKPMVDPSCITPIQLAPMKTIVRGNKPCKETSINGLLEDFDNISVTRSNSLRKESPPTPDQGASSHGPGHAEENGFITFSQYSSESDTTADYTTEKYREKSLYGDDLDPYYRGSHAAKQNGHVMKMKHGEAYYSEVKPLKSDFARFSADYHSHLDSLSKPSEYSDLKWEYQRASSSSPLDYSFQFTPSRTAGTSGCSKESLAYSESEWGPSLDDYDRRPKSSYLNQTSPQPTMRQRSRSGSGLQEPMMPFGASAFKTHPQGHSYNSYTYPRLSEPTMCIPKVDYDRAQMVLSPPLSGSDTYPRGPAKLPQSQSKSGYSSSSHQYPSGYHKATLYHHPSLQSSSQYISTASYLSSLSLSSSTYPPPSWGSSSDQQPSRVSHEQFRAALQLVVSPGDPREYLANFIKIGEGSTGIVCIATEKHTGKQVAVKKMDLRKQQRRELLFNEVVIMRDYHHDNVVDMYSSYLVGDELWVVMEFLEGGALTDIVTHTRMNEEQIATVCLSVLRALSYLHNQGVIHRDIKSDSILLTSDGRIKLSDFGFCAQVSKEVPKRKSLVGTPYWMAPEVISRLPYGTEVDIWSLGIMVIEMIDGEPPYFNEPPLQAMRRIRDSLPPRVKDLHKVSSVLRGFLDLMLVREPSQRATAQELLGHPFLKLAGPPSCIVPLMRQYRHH

[15] = target: Mitogen-activated protein kinase 8 (Homo sapiens, UniProt P45983)
[16] = target: STE20-like serine/threonine-protein kinase (Homo sapiens, UniProt Q9H2G2)
[17] = target: Serine/threonine-protein kinase 10 (Homo sapiens, UniProt O94804)
Aurora kinase A = target: T1, Aurora kinase A (Homo sapiens, UniProt O14965)
T1 sequence (O14965 whole entry): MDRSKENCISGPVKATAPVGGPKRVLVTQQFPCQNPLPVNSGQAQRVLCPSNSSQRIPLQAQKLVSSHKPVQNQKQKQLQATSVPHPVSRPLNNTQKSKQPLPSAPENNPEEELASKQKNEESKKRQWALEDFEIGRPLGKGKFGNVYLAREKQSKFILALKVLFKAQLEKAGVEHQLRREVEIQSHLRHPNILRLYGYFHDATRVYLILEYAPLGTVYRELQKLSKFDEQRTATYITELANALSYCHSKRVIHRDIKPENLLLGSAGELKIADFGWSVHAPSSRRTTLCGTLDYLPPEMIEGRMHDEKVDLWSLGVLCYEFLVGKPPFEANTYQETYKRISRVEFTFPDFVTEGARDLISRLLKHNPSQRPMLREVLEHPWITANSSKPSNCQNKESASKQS

[18] = target: AP2-associated protein kinase 1 (Homo sapiens, UniProt Q2M2I8)
[19] = target: Mitogen-activated protein kinase 9 (Homo sapiens, UniProt P45984)
Sequence of Mitogen-activated protein kinase 9 (P45984 whole entry): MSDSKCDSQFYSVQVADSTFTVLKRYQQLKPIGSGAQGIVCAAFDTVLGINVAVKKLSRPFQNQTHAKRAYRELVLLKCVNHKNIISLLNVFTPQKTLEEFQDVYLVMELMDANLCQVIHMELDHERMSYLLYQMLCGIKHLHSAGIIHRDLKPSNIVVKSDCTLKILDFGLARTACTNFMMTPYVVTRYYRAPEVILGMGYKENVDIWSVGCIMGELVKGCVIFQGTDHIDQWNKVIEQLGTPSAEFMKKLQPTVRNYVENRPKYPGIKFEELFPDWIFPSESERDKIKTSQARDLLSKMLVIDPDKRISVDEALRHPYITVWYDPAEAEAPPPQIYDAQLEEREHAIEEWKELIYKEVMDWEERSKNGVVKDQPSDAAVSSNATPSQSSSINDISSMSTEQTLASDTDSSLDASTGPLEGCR

[20] = target: Tyrosine-protein kinase ABL1 (Homo sapiens, UniProt P00519, T315I)
[21] = target: Tyrosine-protein kinase Lck (Homo sapiens, UniProt P06239)
Sequence of Tyrosine-protein kinase Lck (P06239 whole entry): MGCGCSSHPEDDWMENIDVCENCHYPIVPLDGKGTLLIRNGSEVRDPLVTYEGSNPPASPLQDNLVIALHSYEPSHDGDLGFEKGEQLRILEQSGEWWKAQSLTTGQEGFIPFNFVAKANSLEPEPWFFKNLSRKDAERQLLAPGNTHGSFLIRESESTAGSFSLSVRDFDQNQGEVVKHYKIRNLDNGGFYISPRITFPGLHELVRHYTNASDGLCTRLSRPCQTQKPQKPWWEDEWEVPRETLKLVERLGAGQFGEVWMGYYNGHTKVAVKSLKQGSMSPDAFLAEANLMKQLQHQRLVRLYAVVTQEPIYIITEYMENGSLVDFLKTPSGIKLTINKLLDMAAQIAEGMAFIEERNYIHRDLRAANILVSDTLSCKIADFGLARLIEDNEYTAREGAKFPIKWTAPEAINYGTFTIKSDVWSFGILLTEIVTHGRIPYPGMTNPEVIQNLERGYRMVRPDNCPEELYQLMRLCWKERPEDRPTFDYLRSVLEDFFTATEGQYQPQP

[22] = target: Tyrosine-protein kinase ABL1 (Homo sapiens, UniProt P00519, Y253F)
[23] = target: Tyrosine-protein kinase ABL1 (Homo sapiens, UniProt P00519, M351T)
[24] = target: Tyrosine-protein kinase ABL1 (Homo sapiens, UniProt P00519, E255K)
[25] = target: Tyrosine-protein kinase ABL1 (Homo sapiens, UniProt P00519, H396P)

Measured: Kd

Sequence of Casein kinase I isoform gamma-1 (Q9HCP0 whole entry, canonical isoform): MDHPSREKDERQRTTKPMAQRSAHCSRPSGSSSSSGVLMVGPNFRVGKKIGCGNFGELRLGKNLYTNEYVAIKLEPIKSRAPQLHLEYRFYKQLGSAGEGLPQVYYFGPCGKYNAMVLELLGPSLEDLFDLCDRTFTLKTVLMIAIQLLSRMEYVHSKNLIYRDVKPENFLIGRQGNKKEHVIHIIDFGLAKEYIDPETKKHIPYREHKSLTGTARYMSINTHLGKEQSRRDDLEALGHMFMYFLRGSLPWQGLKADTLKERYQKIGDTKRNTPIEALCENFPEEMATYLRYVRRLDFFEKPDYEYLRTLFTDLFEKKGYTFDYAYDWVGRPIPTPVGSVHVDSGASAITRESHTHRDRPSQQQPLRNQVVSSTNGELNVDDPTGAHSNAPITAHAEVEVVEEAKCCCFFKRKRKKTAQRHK

C#Cc1cccc(Nc2ncnc3cc(OCCOC)c(OCCOC)cc23)c1 [ERLOTINIB]
Not Active: [1] | [2] | [3] | [4] | [5] | [6] | [7] | [8] | [9] | [10] | [11] | [12] | [13] | [14] | [15]

Cc1ccc(NC(=O)c2ccc(CN3CCN(C)CC3)cc2)cc1Nc1nccc(-c2cccnc2)n1 [IMATINIB]
Not Active: [1] | [16] | [3] | [4] | [17] | [7] | [8] | [9] | [11] | Aurora kinase A | [13] | [18] | [14]

O=c1ncn2nc(Sc3ccc(F)cc3F)ccc2c1-c1c(Cl)cccc1Cl [NEFLAMAPIMOD]
Not Active: [1] | [16] | [19] | [2] | [3] | [20] | [4] | [6] | [17] | [7] | [8] | [9] | [10] | [11] | Aurora kinase A | [12] | [13] | [18] | [14] | [15]

CCOc1cc2ncc(C#N)c(Nc3ccc(F)c(Cl)c3)c2cc1NC(=O)/C=C/CN(C)C [PELITINIB]
Not Active: [19] | [3] | [5] | Aurora kinase A | [13] | [14] | [15]

Oc1ccc(-c2nc(-c3ccc(F)cc3)c(-c3ccncc3)[nH]2)cc1 [SB-202190]
Not Active: [1] | [16] | [2] | [3] | [20] | [4] | [21] | [6] | [17] | [7] | [8] | [22] | [10] | [23] | [11] | [24] | Aurora kinase A | [12] | [13] | [18] | [14] | [25]

C[S+]([O-])c1ccc(-c2nc(-c3ccc(F)cc3)c(-c3ccncc3)[nH]2)cc1 (configuration not stated) [SB-203580]
Not Active: [1] | [2] | [3] | [20] | [4] | [21] | [6] | [17] | [7] | [8] | [22] | [10] | [23] | [11] | [24] | Aurora kinase A | [12] | [13] | [18] | [14] | [25]

CC[C@H](CO)Nc1nc(NCc2ccccc2)c2ncn(C(C)C)c2n1 [SELICICLIB]
Not Active: [1] | [16] | [19] | [2] | [20] | [4] | [21] | [5] | [17] | [7] | [8] | [22] | [23] | [11] | [24] | Aurora kinase A | [13] | [18] | [14] | [15] | [25]

Oc1c2ccccc2c2c3c(cccc13)N=N2 [SP-600125]
Not Active: [1] | [20] | [4] | [21] | [5] | [17] | [7] | [8] | [22] | [23] | [11] | [24] | [12] | [13] | [14] | [25]

COc1cc2c(N3CCN(C(=O)Nc4ccc(OC(C)C)cc4)CC3)ncnc2cc1OCCCN1CCCCC1 [TANDUTINIB]
Not Active: [1] | [19] | [2] | [3] | [20] | [4] | [21] | [5] | [6] | [17] | [7] | [8] | [22] | [9] | [23] | [24] | Aurora kinase A | [13] | [18] | [14] | [15] | [25]
